ChEMBL document CHEMBL1156471, “Targeting host cell furin proprotein convertases as a therapeutic strategy against bacterial toxins and viral pathogens” (J Biol Chem, 2007)
Non-standard residues stand in square brackets, D forms with d. Residues, ends and D or L forms follow the SMILES beside them. Sar = CNCC(=O)O

The molecules below were run against Furin (Homo sapiens, UniProt P09958).
Sequence of Furin (P09958 whole entry): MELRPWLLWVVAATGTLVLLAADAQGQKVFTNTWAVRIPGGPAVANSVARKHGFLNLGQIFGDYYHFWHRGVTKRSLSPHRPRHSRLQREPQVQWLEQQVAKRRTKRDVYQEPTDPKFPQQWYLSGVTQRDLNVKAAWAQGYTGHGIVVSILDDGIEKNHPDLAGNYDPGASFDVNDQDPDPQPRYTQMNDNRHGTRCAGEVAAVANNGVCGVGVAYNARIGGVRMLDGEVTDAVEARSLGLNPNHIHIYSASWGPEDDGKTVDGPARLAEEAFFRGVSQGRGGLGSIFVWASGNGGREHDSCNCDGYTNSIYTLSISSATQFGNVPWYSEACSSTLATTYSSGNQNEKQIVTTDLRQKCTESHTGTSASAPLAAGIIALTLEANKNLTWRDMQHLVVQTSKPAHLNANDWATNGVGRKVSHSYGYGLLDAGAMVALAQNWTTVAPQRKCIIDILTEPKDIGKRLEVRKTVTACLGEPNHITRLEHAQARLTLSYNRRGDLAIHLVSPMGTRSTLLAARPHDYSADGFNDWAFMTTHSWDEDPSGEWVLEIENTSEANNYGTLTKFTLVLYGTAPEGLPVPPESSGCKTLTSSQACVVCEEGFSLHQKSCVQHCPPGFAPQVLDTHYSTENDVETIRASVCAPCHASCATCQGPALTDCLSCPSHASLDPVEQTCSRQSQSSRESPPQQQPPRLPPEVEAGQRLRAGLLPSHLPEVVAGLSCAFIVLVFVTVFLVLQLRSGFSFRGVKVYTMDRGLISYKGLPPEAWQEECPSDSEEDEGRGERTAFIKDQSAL
Work on `C[C@H](NC(=O)[C@H](C)NC(=O)[C@H](CCCNC(=N)N)NC(=O)[C@H](CCC(=O)O)NC(=O)[C@H](CCCNC(=N)N)NC(=O)[C@@H]1CCCN1C(=O)[C@@H](N)[C@@H](C)O)C(=O)N[C@@H](CCCCN)C(=O)N[C@@H](CCCCN)C(=O)N[C@@H](CCCNC(=N)N)C(=O)N(C)CC(=O)O` (H-TPRERAAKKR[Sar]-OH) yielded a Ki greater than 100 nM.
Work on `C[C@H](NC(=O)[C@H](CCCNC(=N)N)NC(=O)[C@H](CCC(N)=O)NC(=O)[C@@H]1CCCN1C(=O)[C@@H](N)[C@@H](C)O)C(=O)N[C@@H](CCCNC(=N)N)C(=O)N[C@@H](CCCNC(=N)N)C(=O)N[C@@H](CCCNC(=N)N)C(=O)N[C@@H](CCCCN)C(=O)N[C@@H](CCCCN)C(=O)N[C@@H](CCCNC(=N)N)C(=O)N[C@H](CCCNC(=N)N)C(=O)O` yielded a Ki greater than 100 nM.
Molecule `C[C@H](NC(=O)[C@H](C)NC(=O)[C@@H](N)[C@@H](C)O)C(=O)N[C@@H](CCC(=O)O)C(=O)N[C@@H](CCCNC(=N)N)C(=O)N[C@@H](CCCNC(=N)N)C(=O)N[C@@H](CCCNC(=N)N)C(=O)N[C@@H](CCCCN)C(=O)N[C@@H](CCCCN)C(=O)N[C@@H](CCCNC(=N)N)C(=O)N(C)CC(=O)O` (H-TAAERRRKKR[Sar]-OH) has a Ki greater than 100 nM.
Molecule `C[C@@H](O)[C@H](N)C(=O)N1CCC[C@H]1C(=O)N[C@@H](CCCNC(=N)N)C(=O)N[C@H](CCCCN)C(=O)N[C@@H](CCCNC(=N)N)C(=O)N[C@@H](CCCNC(=N)N)C(=O)N[C@@H](CCCNC(=N)N)C(=O)N[C@@H](CCCCN)C(=O)N[C@@H](CCCCN)C(=O)N[C@@H](CCCNC(=N)N)C(=O)NCC(=O)O` has a Ki greater than 100 nM.
H-GGGTPQRARRRKKRW-OH gave a Ki of 67 nM.
H-GAGAGATPRARRRKKRY-OH gave a Ki of 57 nM.
With H-TPRERRAKKRG-NH2 the Ki was greater than 100 nM.
H-TPRGRRRKKRG-NH2 was tested, and the Ki was greater than 100 nM.
Work on H-TAAERRRKKRG-OH yielded a Ki greater than 100 nM.
H-TPRERRRKARG-OH showed a Ki greater than 100 nM.
For H-TPRARRRKKRA-OH, the Ki was greater than 100 nM.
H-TPRERRRAKRV-OH showed a Ki greater than 100 nM.
`C[C@H](NC(=O)[C@H](C)NC(=O)[C@@H]1CCCN1C(=O)[C@@H](N)[C@@H](C)O)C(=O)N[C@@H](C)C(=O)N[C@@H](CCCNC(=N)N)C(=O)N[C@@H](CCCNC(=N)N)C(=O)N[C@@H](CCCCN)C(=O)N[C@@H](CCCCN)C(=O)N[C@@H](CCCNC(=N)N)C(=O)N(C)CC(=O)O` (H-TPAAARRKKR[Sar]-OH) was tested, and the Ki was greater than 100 nM.
For H-TPRARRRKKRE-OH, the Ki was greater than 100 nM.
Molecule H-TPQRDRRRKKRG-OH has a Ki greater than 100 nM.
H-TPREARRKKRG-NH2 gave a Ki greater than 100 nM.
H-GAGAGATPRARRRKKRT-OH showed a Ki of 47 nM.
In the case of H-TPRARRRKKRY-OH, the Ki is reported as 53 nM.
In the case of H-TPRERRRKAAV-OH, the Ki is reported as greater than 100 nM.
For `C[C@@H](O)[C@H](N)C(=O)N1CCC[C@H]1C(=O)N[C@@H](CCCNC(=N)N)C(=O)N[C@@H](CCCNC(N)=O)C(=O)N[C@@H](CCCNC(=N)N)C(=O)N[C@@H](CCCNC(=N)N)C(=O)N[C@@H](CCCNC(=N)N)C(=O)N[C@@H](CCCCN)C(=O)N[C@@H](CCCCN)C(=O)N[C@@H](CCCNC(=N)N)C(=O)NCC(N)=O`, the Ki was greater than 100 nM.
In the case of `C[C@H](O)[C@H](N)C(=O)N1CCC[C@H]1C(=O)N[C@@H](CCCNC(=N)N)C(=O)N[C@H](CCC(=O)O)C(=O)N[C@@H](CCCNC(=N)N)C(=O)N[C@@H](CCCNC(=N)N)C(=O)N[C@@H](CCCNC(=N)N)C(=O)N[C@@H](CCCCN)C(=O)N[C@@H](CCCCN)C(=O)N[C@@H](CCCNC(=N)N)C(=O)NCC(N)=O`, the Ki is reported as greater than 100 nM.
Molecule `C[C@H](NC(=O)[C@H](C)NC(=O)[C@@H]1CCCN1C(=O)[C@@H](N)[C@@H](C)O)C(=O)N[C@@H](CCCN=C(N)N)C(=O)N[C@@H](CCCN=C(N)N)C(=O)N[C@@H](CCCN=C(N)N)C(=O)N[C@@H](CCCCN)C(=O)N[C@@H](CCCCN)C(=O)N[C@@H](CCCN=C(N)N)C(=O)N(C)CC(=O)O` (H-TPAARRRKKR[Sar]-OH) has a Ki greater than 100 nM.
In the case of H-TPREAAAKKRG-OH, the Ki is reported as greater than 100 nM.
H-TPQRTRRRKKRG-OH was tested, and the Ki was greater than 100 nM.
H-TPRERRRKAAG-OH was tested, and the Ki was greater than 100 nM.
For H-TPRQRRRKKRG-NH2, the Ki was greater than 100 nM.
For H-TPRDRRRKKRG-NH2, the Ki was greater than 100 nM.
For `C[C@H](NC(=O)[C@H](CCCN=C(N)N)NC(=O)[C@@H]1CCCN1C(=O)[C@@H](N)[C@@H](C)O)C(=O)N[C@@H](CCCN=C(N)N)C(=O)N[C@@H](CCCN=C(N)N)C(=O)N[C@@H](CCCN=C(N)N)C(=O)N[C@@H](CCCCN)C(=O)N[C@@H](CCCCN)C(=O)N[C@@H](CCCN=C(N)N)C(=O)O`, the Ki was 138 nM.
`C[C@@H](O)[C@H](N)C(=O)N1CCC[C@H]1C(=O)N[C@@H](CCC(N)=O)C(=O)N[C@@H](CCCN=C(N)N)C(=O)N[C@@H](CCCN=C(N)N)C(=O)N[C@@H](CCCN=C(N)N)C(=O)N[C@@H](CCCN=C(N)N)C(=O)N[C@@H](CCCN=C(N)N)C(=O)N[C@@H](CCCCN)C(=O)N[C@@H](CCCCN)C(=O)N[C@@H](CCCNC(=N)N)C(=O)NCC(=O)O` gave a Ki greater than 100 nM.
For `CC(C)C[C@H](NC(=O)[C@H](CCCNC(=N)N)NC(=O)[C@H](CCCCN)NC(=O)[C@H](CCCCN)NC(=O)[C@H](CCCNC(=N)N)NC(=O)[C@H](CCCNC(=N)N)NC(=O)[C@H](CCCNC(=N)N)NC(=O)[C@H](C)NC(=O)[C@H](CCCNC(=N)N)NC(=O)[C@@H]1CCCN1C(=O)[C@@H](N)[C@@H](C)O)C(N)=O`, the Ki was greater than 100 nM.
For `CC(C)C[C@H](NC(=O)[C@H](CCCNC(=N)N)NC(=O)[C@H](CCC(N)=O)NC(=O)[C@@H]1CCCN1C(=O)[C@@H](N)[C@@H](C)O)C(=O)N[C@@H](CCCNC(=N)N)C(=O)N[C@@H](CCCNC(=N)N)C(=O)N[C@@H](CCCNC(=N)N)C(=O)N[C@@H](CCCCN)C(=O)N[C@@H](CCCCN)C(=O)N[C@@H](CCCNC(=N)N)C(=O)NCC(=O)O`, the Ki was greater than 100 nM.
`CSCC[C@H](NC(=O)[C@H](CCCNC(=N)N)NC(=O)[C@H](CCCCN)NC(=O)[C@H](CCCCN)NC(=O)[C@H](CCCNC(=N)N)NC(=O)[C@H](CCCNC(=N)N)NC(=O)[C@H](CCCNC(=N)N)NC(=O)[C@H](C)NC(=O)[C@H](CCCNC(=N)N)NC(=O)[C@@H]1CCCN1C(=O)[C@@H](N)[C@@H](C)O)C(=O)O` was tested, and the Ki was greater than 100 nM.
For H-TPRFRRRKKRG-NH2, the Ki was greater than 100 nM.
Work on H-TPRERARKKRG-OH yielded a Ki greater than 100 nM.
For H-TPAERRRKKRV-OH, the Ki was greater than 100 nM.
With H-TPRERAAKKRG-OH the Ki was greater than 100 nM.
For `C[C@H](NC(=O)[C@H](CCCNC(=N)N)NC(=O)[C@H](CCCNC(=N)N)NC(=O)[C@H](CCCNC(=N)N)NC(=O)[C@H](CCC(=O)O)NC(=O)[C@H](CCCNC(=N)N)NC(=O)[C@@H]1CCCN1C(=O)[C@@H](N)[C@@H](C)O)C(=O)N[C@@H](CCCCN)C(=O)N[C@@H](CCCNC(=N)N)C(=O)N(C)CC(=O)O` (H-TPRERRRAKR[Sar]-OH), the Ki was greater than 100 nM.
In the case of H-TPRARRRKKRI-OH, the Ki is reported as 30 nM.
`C[C@H](NC(=O)[C@H](C)NC(=O)[C@H](CCC(=O)O)NC(=O)[C@H](CCCNC(=N)N)NC(=O)[C@@H]1CCCN1C(=O)[C@@H](N)[C@@H](C)O)C(=O)N[C@@H](C)C(=O)N[C@@H](CCCCN)C(=O)N[C@@H](CCCCN)C(=O)N[C@@H](CCCNC(=N)N)C(=O)N(C)CC(=O)O` (H-TPREAAAKKR[Sar]-OH) gave a Ki greater than 100 nM.
H-TPQRSRRRKKRG-OH gave a Ki greater than 100 nM.
H-TPRARRRKKRK-NH2 gave a Ki greater than 100 nM.
For `C[C@H](NC(=O)[C@H](CCCN=C(N)N)NC(=O)[C@H](CCC(N)=O)NC(=O)[C@@H]1CCCN1C(=O)[C@@H](N)[C@@H](C)O)C(=O)N[C@@H](CCCN=C(N)N)C(=O)N[C@@H](CCCN=C(N)N)C(=O)N[C@@H](CCCN=C(N)N)C(=O)N[C@@H](CCCCN)C(=O)N[C@@H](CCCCN)C(=O)N[C@@H](CCCN=C(N)N)C(=O)NCC(=O)O`, the Ki was greater than 100 nM.
For H-TPRARRRKKRN-OH, the Ki was 45 nM.
`CCCC[C@H](NC(=O)[C@H](CCCNC(=N)N)NC(=O)[C@H](CCCCN)NC(=O)[C@H](CCCCN)NC(=O)[C@H](CCCNC(=N)N)NC(=O)[C@H](CCCNC(=N)N)NC(=O)[C@H](CCCNC(=N)N)NC(=O)[C@H](C)NC(=O)[C@H](CCCNC(=N)N)NC(=O)[C@@H]1CCCN1C(=O)[C@@H](N)[C@@H](C)O)C(=O)O` showed a Ki of 81 nM.
For `C[C@@H](N)C(=O)N1CCC[C@H]1C(=O)N[C@@H](CCCNC(=N)N)C(=O)N[C@@H](CCC(=O)O)C(=O)N[C@@H](CCCNC(=N)N)C(=O)N[C@@H](CCCNC(=N)N)C(=O)N[C@@H](CCCNC(=N)N)C(=O)N[C@@H](CCCCN)C(=O)N[C@@H](CCCCN)C(=O)N[C@@H](CCCNC(=N)N)C(=O)NCC(N)=O`, the Ki was greater than 100 nM.
Molecule H-TPRERRRKAA-OH has a Ki greater than 100 nM.
`C[C@@H](O)[C@H](N)C(=O)N1CCC[C@H]1C(=O)N[C@@H](CCCNC(=N)N)C(=O)NCCC(=O)N[C@@H](CCCNC(=N)N)C(=O)N[C@@H](CCCNC(=N)N)C(=O)N[C@@H](CCCNC(=N)N)C(=O)N[C@@H](CCCCN)C(=O)N[C@@H](CCCCN)C(=O)N[C@@H](CCCNC(=N)N)C(=O)NCC(N)=O` was tested, and the Ki was greater than 100 nM.
`C[C@H](N)C(=O)N[C@@H](C)C(=O)N[C@@H](CCCN=C(N)N)C(=O)N[C@@H](CCC(=O)O)C(=O)N[C@@H](CCCN=C(N)N)C(=O)N[C@@H](CCCN=C(N)N)C(=O)N[C@@H](CCCN=C(N)N)C(=O)N[C@@H](CCCCN)C(=O)N[C@@H](CCCCN)C(=O)N[C@@H](CCCN=C(N)N)C(=O)N(C)CC(=O)O` (H-AARERRRKKR[Sar]-OH) gave a Ki greater than 100 nM.
Work on H-TPREARRKKR-OH yielded a Ki greater than 100 nM.
Molecule H-TPRARRRKKRD-OH has a Ki of 56 nM.
With H-TPRIRRRKKRG-OH the Ki was greater than 100 nM.
With `C[C@H](NC(=O)[C@H](CCCN=C(N)N)NC(=O)[C@H](CCC(N)=O)NC(=O)[C@@H]1CCCN1C(=O)[C@@H](N)[C@@H](C)O)C(=O)N[C@@H](CCCN=C(N)N)C(=O)N[C@@H](CCCN=C(N)N)C(=O)N[C@@H](CCCN=C(N)N)C(=O)N[C@@H](CCCCN)C(=O)N[C@@H](CCCCN)C(=O)N[C@@H](CCCNC(N)=O)C(=O)NCC(=O)O` the Ki was greater than 100 nM.
H-TPRERRRKKAG-OH gave a Ki greater than 100 nM.
For `C[C@H](NC(=O)[C@H](CCCNC(=N)N)NC(=O)[C@H](CCC(N)=O)NC(=O)[C@@H]1CCCN1C(=O)[C@@H](N)[C@@H](C)O)C(=O)N[C@@H](CCCNC(=N)N)C(=O)N[C@@H](CCCNC(=N)N)C(=O)N[C@@H](CCCNC(=N)N)C(=O)N[C@@H](CCCCN)C(=O)N[C@@H](CCCCN)C(=O)N[C@@H](CCCNC(=N)N)C(=O)N[C@H](CCCCN)C(=O)O`, the Ki was greater than 100 nM.
In the case of H-TPRLRRRKKRG-OH, the Ki is reported as greater than 100 nM.
In the case of H-TPRPRRRKKRG-OH, the Ki is reported as greater than 100 nM.
With `C[C@H](NC(=O)[C@@H](N)[C@@H](C)O)C(=O)N[C@@H](CCCNC(=N)N)C(=O)N[C@@H](CCC(=O)O)C(=O)N[C@@H](CCCNC(=N)N)C(=O)N[C@@H](CCCNC(=N)N)C(=O)N[C@@H](CCCNC(=N)N)C(=O)N[C@@H](CCCCN)C(=O)N[C@@H](CCCCN)C(=O)N[C@@H](CCCNC(=N)N)C(=O)N(C)CC(=O)O` (H-TARERRRKKR[Sar]-OH) the Ki was greater than 100 nM.
